{"source": "paper PMC12140300", "about": "“Development of Carbon‐11 Labeled Pyrimidine Derivatives as Novel Positron Emission Tomography (PET) Agents Enabling Brain Sigma‐1 Receptor Imaging” (Advanced Science, 2025)", "system": "σ1R", "assay": "NHP PET/MR imaging with kinetic modelling, baseline and self-blocking", "assay_type": "in vivo", "conditions": "for VT, One tissue compartment model [1TCM] / VT, Two tissue compartment model [2TCM] / VT, Logan graphical method [T* = 40 min]: male NHP brain", "text": "Next, we conducted PET/MR imaging studies using [^11C]CNY‐01 in non‐human primates (NHP) to evaluate its safety and translational potential in large animals further. A 90‐minute dynamic PET scan with [^11C]CNY‐01 focusing on the head of a male rhesus monkey. We performed a full kinetic analysis with one‐ and two‐tissue compartment models (1TCM and 2TCM), as well as logan graphical analysis (LGA), using metabolite‐corrected arterial input function (AIF), similar to previous studies,^[ [44], [45] ^] to determine which model best suit kinetics of [^11C]CNY‐01. In most brain regions, 2TCM provided a better fit than 1TCM, as indicated by the Akaike information criterion (AIC) and model selection criterion (MSC) (Table 1). […] To test whether non‐parametric graphical approaches can be used for [^11C]CNY‐01, we performed LGA with an assumption of steady‐state time (T*) of 40 mins (Table 1). […] For voxel‐wise estimation of VT across the whole brain, we then used LGA (Figure 4A).\nWe also performed a self‐blocking scan for [^11C]CNY‐01, administering 0.5 mg kg^−1 of unlabeled CNY‐01 10 min before the radiotracer. The metabolism of the radiotracer in the blocking scan was similar to that of the baseline (Figure S6, Supporting Information). The radioactivity concentration was lower in arterial blood samples in the blocking scan compared to the baseline, while brain uptake was higher in the blocking scan (Figure S6, Supporting Information). […] The variation of the radiotracer plasma protein binding (fp) between baseline and blocking scan may explain our observation in a way similar to that of the previous study.^[ [46] ^] Nonetheless, due to this study's lack of fp data, the exact explanation for our observation remains to be determined further.\nThe PET/MR imaging protocol in non‐human primates (NHP) followed our previous work.^[ [55], [56] ^] A male rhesus macaque (8.55 kg) was anesthetized with an intramuscular injection of xylazine (0.5–2.0 mg kg^−1) and ketamine (10 mg kg^−1), followed by endotracheal intubation. V‐ and A‐lines were inserted, and anesthesia was maintained using isoflurane. [^11C] CNY‐01 was administered after antecubital catheterization, with an arterial line prepared for radiometabolite analysis. In the self‐blocking scan, the same animal (6.80 kg) was scanned with a 10‐min pre‐treatment of 0.5 mg kg^−1 unlabeled CNY‐01. PET/MR imaging data were acquired using a Siemens TIM‐Trio scanner (3T) equipped with a Siemens BrainPET insert module and an in‐house‐built 8‐channel head coil. The dynamic scan began, followed by administration of [^11C] CNY‐01 (5.1 mCi). The list mode data were reconstructed using the 3D ordinary Poisson expectation‐maximization algorithm (16 subsets and 6 iterations) with detector efficiency, decay, dead time, random coincidences, scatter, and attenuation corrections with gradually increasing time frams. All images were reconstructed into 153 slices with 256 × 256 pixels and 1.25‐mm isotropic voxel size. High‐resolution structural MRI scans were acquired by using a multi‐echo magnetization‐prepared rapid gradient echo (ME‐MPRAGE) sequence with parameters as follows: TR = 2400 ms; TE1/TE2/TE3/TE4 = 1.57/3.29/5.01/6.73 ms; inversion time = 1200 ms; flip angle = 9°; spatial resolution = 1 mm isotropic.\nFor macaque brain PET/MR imaging analysis, we applied the INIA19 Template^[ [57] ^] and NeuroMaps Atlas in accordance with our prior work.^[ [58] ^] In brief, reconstructed PET images were registered to the INIA19 Primate Brain Atlas^[ [57] ^] with the following processing steps^[ [59] ^]: The high‐resolution T1‐weighted MR image, co‐registered with the PET image, was first affine‐registered to the INIA19 atlas. By using the same transformation, dynamic PET data was registered to the atlas. A spatial smoothing with a 6‐mm FWHM Gaussian kernel was applied to PET images. Twenty ROIs determined in the INIA19 atlas were used to derive regional TACs. […]", "key": {"[1]": {"conditions": "NAc, 10-min pretreatment of unlabeled CNY-01 (0.5 mg kg^−1)"}, "[2]": {"conditions": "Occg, 10-min pretreatment of unlabeled CNY-01 (0.5 mg kg^−1)"}, "[3]": {"conditions": "Ofc, 10-min pretreatment of unlabeled CNY-01 (0.5 mg kg^−1)"}, "[4]": {"conditions": "PCC, 10-min pretreatment of unlabeled CNY-01 (0.5 mg kg^−1)"}, "[5]": {"conditions": "Putamen, 10-min pretreatment of unlabeled CNY-01 (0.5 mg kg^−1)"}, "[6]": {"conditions": "Sensory, 10-min pretreatment of unlabeled CNY-01 (0.5 mg kg^−1)"}, "[7]": {"conditions": "Thalamus, 10-min pretreatment of unlabeled CNY-01 (0.5 mg kg^−1)"}, "[8]": {"conditions": "VTA, 10-min pretreatment of unlabeled CNY-01 (0.5 mg kg^−1)"}, "[9]": {"conditions": "WB, 10-min pretreatment of unlabeled CNY-01 (0.5 mg kg^−1)"}, "[10]": {"conditions": "WM, 10-min pretreatment of unlabeled CNY-01 (0.5 mg kg^−1)"}}}
{"smiles": "Cc1nc(-c2ccc(O[11CH3])cc2)nc(OCCCN2CCCCC2)c1Cl", "note": "[[^11C]CNY-01]", "values": [{"measurement": "VT, One tissue compartment model [1TCM]", "setting": "Motor, baseline", "result": 6.97, "unit": "mL cm^−3"}, {"measurement": "VT, Two tissue compartment model [2TCM]", "setting": "Motor, baseline", "result": 8.88, "unit": "mL cm^−3"}, {"measurement": "VT, Logan graphical method [T* = 40 min]", "setting": "[1]", "result": 33.22, "unit": "ml/cm^3"}, {"measurement": "VT, Two tissue compartment model [2TCM]", "setting": "[1]", "result": 26.92, "unit": "ml/cm^3"}, {"measurement": "VT, Logan graphical method [T* = 40 min]", "setting": "NAc, baseline", "result": 13.11, "unit": "mL cm^−3"}, {"measurement": "VT, One tissue compartment model [1TCM]", "setting": "NAc, baseline", "result": 9.85, "unit": "mL cm^−3"}, {"measurement": "VT, Two tissue compartment model [2TCM]", "setting": "NAc, baseline", "result": 11.85, "unit": "mL cm^−3"}, {"measurement": "nonspecific binding in blockage experiments", "setting": "NHP", "result": "high nonspecific binding"}, {"measurement": "binding to target within the imaging timeframe", "setting": "NHP, speculated from pharmacokinetic characteristics", "result": "predominantly irreversible"}, {"measurement": "VT, Logan graphical method [T* = 40 min]", "setting": "[2]", "result": 12.96, "unit": "ml/cm^3"}, {"measurement": "VT, Two tissue compartment model [2TCM]", "setting": "[2]", "result": 11.84, "unit": "ml/cm^3"}, {"measurement": "VT, Logan graphical method [T* = 40 min]", "setting": "Occg, baseline", "result": 7.07, "unit": "mL cm^−3"}, {"measurement": "VT, One tissue compartment model [1TCM]", "setting": "Occg, baseline", "result": 5.24, "unit": "mL cm^−3"}, {"measurement": "VT, Two tissue compartment model [2TCM]", "setting": "Occg, baseline", "result": 6.28, "unit": "mL cm^−3"}, {"measurement": "VT, Logan graphical method [T* = 40 min]", "setting": "[3]", "result": 20.65, "unit": "ml/cm^3"}, {"measurement": "VT, Two tissue compartment model [2TCM]", "setting": "[3]", "result": 16.68, "unit": "ml/cm^3"}, {"measurement": "VT, Logan graphical method [T* = 40 min]", "setting": "Ofc, baseline", "result": 9.72, "unit": "mL cm^−3"}, {"measurement": "VT, One tissue compartment model [1TCM]", "setting": "Ofc, baseline", "result": 7.31, "unit": "mL cm^−3"}, {"measurement": "VT, Two tissue compartment model [2TCM]", "setting": "Ofc, baseline", "result": 9.24, "unit": "mL cm^−3"}, {"measurement": "VT, Logan graphical method [T* = 40 min]", "setting": "[4]", "result": 27.31, "unit": "ml/cm^3"}, {"measurement": "VT, Two tissue compartment model [2TCM]", "setting": "[4]", "result": 23.16, "unit": "ml/cm^3"}, {"measurement": "VT, Logan graphical method [T* = 40 min]", "setting": "PCC, baseline", "result": 12.38, "unit": "mL cm^−3"}, {"measurement": "VT, One tissue compartment model [1TCM]", "setting": "PCC, baseline", "result": 9.29, "unit": "mL cm^−3"}, {"measurement": "VT, Two tissue compartment model [2TCM]", "setting": "PCC, baseline", "result": 14.68, "unit": "mL cm^−3"}, {"measurement": "VT, Logan graphical method [T* = 40 min]", "setting": "[5]", "result": 33.81, "unit": "ml/cm^3"}, {"measurement": "VT, Two tissue compartment model [2TCM]", "setting": "[5]", "result": 27.99, "unit": "ml/cm^3"}, {"measurement": "VT, Logan graphical method [T* = 40 min]", "setting": "Putamen, baseline", "result": 15.02, "unit": "mL cm^−3"}, {"measurement": "VT, One tissue compartment model [1TCM]", "setting": "Putamen, baseline", "result": 11.56, "unit": "mL cm^−3"}, {"measurement": "VT, Two tissue compartment model [2TCM]", "setting": "Putamen, baseline", "result": 15.75, "unit": "mL cm^−3"}, {"measurement": "VT, Logan graphical method [T* = 40 min]", "setting": "[6]", "result": 19.24, "unit": "ml/cm^3"}, {"measurement": "VT, Two tissue compartment model [2TCM]", "setting": "[6]", "result": 16.21, "unit": "ml/cm^3"}, {"measurement": "VT, Logan graphical method [T* = 40 min]", "setting": "Sensory, baseline", "result": 8.75, "unit": "mL cm^−3"}, {"measurement": "VT, One tissue compartment model [1TCM]", "setting": "Sensory, baseline", "result": 6.73, "unit": "mL cm^−3"}, {"measurement": "VT, Two tissue compartment model [2TCM]", "setting": "Sensory, baseline", "result": 9.33, "unit": "mL cm^−3"}, {"measurement": "VT, Logan graphical method [T* = 40 min]", "setting": "[7]", "result": 30.88, "unit": "ml/cm^3"}, {"measurement": "VT, Two tissue compartment model [2TCM]", "setting": "[7]", "result": 25.02, "unit": "ml/cm^3"}, {"measurement": "VT, Logan graphical method [T* = 40 min]", "setting": "Thalamus, baseline", "result": 15.50, "unit": "mL cm^−3"}, {"measurement": "VT, One tissue compartment model [1TCM]", "setting": "Thalamus, baseline", "result": 10.94, "unit": "mL cm^−3"}, {"measurement": "VT, Two tissue compartment model [2TCM]", "setting": "Thalamus, baseline", "result": 19.46, "unit": "mL cm^−3"}, {"measurement": "VT, Logan graphical method [T* = 40 min]", "setting": "[8]", "result": 26.74, "unit": "ml/cm^3"}, {"measurement": "VT, Two tissue compartment model [2TCM]", "setting": "[8]", "result": 19.47, "unit": "ml/cm^3"}, {"measurement": "VT, Logan graphical method [T* = 40 min]", "setting": "VTA, baseline", "result": 12.11, "unit": "mL cm^−3"}, {"measurement": "VT, One tissue compartment model [1TCM]", "setting": "VTA, baseline", "result": 8.25, "unit": "mL cm^−3"}, {"measurement": "VT, Two tissue compartment model [2TCM]", "setting": "VTA, baseline", "result": 11.16, "unit": "mL cm^−3"}, {"measurement": "VT, Two tissue compartment model [2TCM]", "setting": "WB (whole brain), baseline", "result": 10.35, "unit": "mL cm^−3"}, {"measurement": "VT, Logan graphical method [T* = 40 min]", "setting": "[9]", "result": 20.75, "unit": "ml/cm^3"}, {"measurement": "VT, Two tissue compartment model [2TCM]", "setting": "[9]", "result": 16.75, "unit": "ml/cm^3"}, {"measurement": "VT, Logan graphical method [T* = 40 min]", "setting": "WB, baseline", "result": 9.82, "unit": "mL cm^−3"}, {"measurement": "VT, One tissue compartment model [1TCM]", "setting": "WB, baseline", "result": 7.44, "unit": "mL cm^−3"}, {"measurement": "VT, Two tissue compartment model [2TCM]", "setting": "WM (white matter), baseline", "result": 15.00, "unit": "mL cm^−3"}, {"measurement": "VT, Logan graphical method [T* = 40 min]", "setting": "[10]", "result": 25.98, "unit": "ml/cm^3"}, {"measurement": "VT, Two tissue compartment model [2TCM]", "setting": "[10]", "result": 21.29, "unit": "ml/cm^3"}, {"measurement": "VT, Logan graphical method [T* = 40 min]", "setting": "WM, baseline", "result": 11.98, "unit": "mL cm^−3"}, {"measurement": "VT, One tissue compartment model [1TCM]", "setting": "WM, baseline", "result": 9.00, "unit": "mL cm^−3"}]}
